# In patent US5643954A, “Method of preventing and alleviating stress in a healthy mammal in need thereof” (priority 1993, dated 1997):
# Read-outs that look alike come from different tables or passages of the source.
# Assays:
# [1] = tested on: EEG; settings: M
# [2] = tested on: arecoline hyperkinesia; settings: M ± m
# [3] = tested on: EEG; settings: for Biopotential slow form amplitude / Expression of biopotential slow forms / Expression of pathologically acute waves and peaked oscillation / Expression of α-rhythm / Paroxysmal bursts / α-frequency / α-oscillation amplitude / β-rhythm amplitude / β-rhythm expression / β-rhythm, low-frequency expression: M
# [4] = tested on: phenamine stereotypy; settings: M ± m
# [5] = for Number of errors per 500 symbols: M ± m
# Description: Examination of the mental capacity dynamics of the tested was performed in two stages.
# [6] = not given; remark: listed apart in the source
# [7] = tested on: strychnine effects; settings: for Threshold doses Strychnine 0,01% solution, death of animal / Threshold doses Strychnine 0,01% solution, start of twitch: M ± m
# [8] = tested on: rat's seminal effervesce (adrenaline); settings: for Amplitude of concentration in % to control / Amplitude of concentration: adrenaline; for Amplitude of concentration: M ± m
# Description: (§1) Experiments were conducted in vivo on male mice weighing 18-22 g and male rats weighing 200-250 g, as well as in vitro on the isolated organs: a guinea pig's ileum and a rat's seminal effervesces.
# [9] = tested on: guinea pig's ileum (acetylcholine); settings: for Amplitude of concentration in % to control / Amplitude of concentration: acetylcholine; for Amplitude of concentration: M ± m
# Description: as §1
# [10] = tested on: bioelectric activity of rats' brain; assay: spontaneous bioelectrical activity of rats' brain (EEG, implanted electrodes); assay type: in vivo; design: Amplitude, slow activ. / Amplitude, fast activ.: unit not given here; settings: for Amplitude, fast activ. / Amplitude, slow activ.: M ± m
# [11] = tested on: Corazol twitch paroxysm; settings: for Threshold doses Corazol 1% solution, death of animal / Threshold doses Corazol 1% solution, start of twitch: M ± m
# [12] = tested on: chronic emotional stress; settings: 1 mg/kg tongue root; for 15% ethanol daily consumed: M ± m
# Source text: It is commonly known that manipulations with animals (cell sampling, administration of substances, water included) are a unique stress factor and cause a prolonged state of excitement, disturbance, aggressiveness.
# [13] = taken 30 minutes before an exam
# [14] = week's fourth day, after classes
# [15] = week's fourth day, before classes, after dose
# [16] = week's second day, after classes
# [17] = week's second day, before classes, after dose
# [18] = after the exams, after taking, M ± m
# [19] = lab conditions, after taking, after testing, M ± m
# [20] = 200 mg/kg single administration
# [21] = 40 mg/kg week-long introduction
substance,measurement,setting,value
aminoacetic acid [claimed preparation],marks exceeding those of the school year,[13],0.5-1 point
same,students noting disappearance of fear and internal discomfort,[13],95%
same,good and excellent marks 4 and 5,"taken before an exam, chiefly in maths",80%
same,Attention mobilization: reaction expression,"[1]; 1,5 hrs after a dose",2.82 arbitrary units
same,Eye opening-closing reaction: biopotential amplitude decline,"[1]; 1,5 hrs after a dose",25.40 mV
same,Eye opening-closing reaction: response,"[1]; 1,5 hrs after a dose",3.71 arbitrary units
same,HV-reaction (test with hyperventilation): reaction expression,"[1]; 1,5 hrs after a dose",2.07 arbitrary units
same,HV-reaction: after-effect,"[1]; 1,5 hrs after a dose",12.40 s
same,Presence of errors in count,"[1]; 1,5 hrs after a dose",28.60%
same,Repeated response to eye opening-closing: reaction expression,"[1]; 1,5 hrs after a dose",3.73 arbitrary units
same,Sonic signal count: reaction expression,"[1]; 1,5 hrs after a dose",3.64 arbitrary units
same,Sonic signal count: reaction suppression,"[1]; 1,5 hrs after a dose",5.79 sonic signals
same,Attention mobilization: reaction expression,[1]; after two-week course,3.21 arbitrary units
same,Eye opening-closing reaction: biopotential amplitude decline,[1]; after two-week course,23.60 mV
same,Eye opening-closing reaction: response,[1]; after two-week course,3.07 arbitrary units
same,HV-reaction (test with hyperventilation): reaction expression,[1]; after two-week course,2.64 arbitrary units
same,HV-reaction: after-effect,[1]; after two-week course,20.70 s
same,Presence of errors in count,[1]; after two-week course,33.00%
same,Repeated response to eye opening-closing: reaction expression,[1]; after two-week course,3.00 arbitrary units
same,Sonic signal count: reaction expression,[1]; after two-week course,3.79 arbitrary units
same,Sonic signal count: reaction suppression,[1]; after two-week course,6.57 sonic signals
same,"Arecoline hyperkinesia, duration",[2]; 2 mg/kg,16.5 ± 0.4 min
same,"Arecoline hyperkinesia, duration",[2]; 20 mg/kg,14.8 ± 1.2 min
same,"Arecoline hyperkinesia, duration",[2]; 40 mg/kg,13.8 ± 0.9 min
same,"Arecoline hyperkinesia, duration",[2]; 80 mg/kg,14.5 ± 0.9 min
same,"Arecoline hyperkinesia, duration",[2]; 200 mg/kg,15.6 ± 0.8 min
same,EEG variation a),"[3]; 1,5 hrs after a dose",2.89 arbitrary units
same,EEG variation b),"[3]; 1,5 hrs after a dose",2.79 arbitrary units
same,Biopotential slow form amplitude,"[3]; 1,5 hrs after a dose",41.40 mV
same,Expression of biopotential slow forms,"[3]; 1,5 hrs after a dose",2.85 arbitrary units
same,Expression of pathologically acute waves and peaked oscillation,"[3]; 1,5 hrs after a dose",1.71 arbitrary units
same,Expression of α-rhythm,"[3]; 1,5 hrs after a dose",4.89 arbitrary units
same,Paroxysmal bursts,"[3]; 1,5 hrs after a dose",2.21 arbitrary units
same,α-frequency,"[3]; 1,5 hrs after a dose",10.60 Hertz
same,α-oscillation amplitude,"[3]; 1,5 hrs after a dose",105.70 mV
same,β-rhythm amplitude,"[3]; 1,5 hrs after a dose",13.60 mV
same,β-rhythm expression,"[3]; 1,5 hrs after a dose",2.14 arbitrary units
same,"β-rhythm, low-frequency expression","[3]; 1,5 hrs after a dose",1.21 arbitrary units
same,EEG variation a),[3]; after two-week course,3.00 arbitrary units
same,EEG variation b),[3]; after two-week course,2.42 arbitrary units
same,Biopotential slow form amplitude,[3]; after two-week course,44.20 mV
same,Expression of biopotential slow forms,[3]; after two-week course,3.60 arbitrary units
same,Expression of pathologically acute waves and peaked oscillation,[3]; after two-week course,1.93 arbitrary units
same,Expression of α-rhythm,[3]; after two-week course,4.54 arbitrary units
same,Paroxysmal bursts,[3]; after two-week course,3.00 arbitrary units
same,α-frequency,[3]; after two-week course,10.40 Hertz
same,α-oscillation amplitude,[3]; after two-week course,95.00 mV
same,β-rhythm amplitude,[3]; after two-week course,16.40 mV
same,β-rhythm expression,[3]; after two-week course,2.07 arbitrary units
same,"β-rhythm, low-frequency expression",[3]; after two-week course,1.29 arbitrary units
same,EEG-based activity,"[3]; all examined EEG indicators, in words",has nootropic activity
same,phenamine duration of stereotypy,[4]; 2 mg/kg,65.0 ± 2.5 min
same,phenamine latent period,[4]; 2 mg/kg,110.0 ± 2.6 s
same,phenamine duration of stereotypy,[4]; 40 mg/kg,62.0 ± 1.6 min
same,phenamine latent period,[4]; 40 mg/kg,115.0 ± 1.5 s
same,phenamine duration of stereotypy,[4]; 200 mg/kg,62.0 ± 2.1 min
same,phenamine latent period,[4]; 200 mg/kg,120.0 ± 2.8 s
same,Work without mistakes,[5]; [14],14.3%
same,Number of errors per 500 symbols,[5]; [14],8.4 ± 1.2
same,Work without mistakes,[5]; [15],28.6%
same,Number of errors per 500 symbols,[5]; [15],7.6 ± 1.9
same,Work without mistakes,[5]; [16],25.0%
same,Number of errors per 500 symbols,[5]; [16],7.8 ± 1.8
same,Work without mistakes,[5]; [17],16.5%
same,Number of errors per 500 symbols,[5]; [17],6.5 ± 1.6
same,"Arterial pressure, diastolic",[6]; [18],65.7 ± 1.5 mm Hg
same,"Arterial pressure, systolic",[6]; [18],112.8 ± 2.8 mm Hg
same,Pulse frequency,[6]; [18],72.8 ± 2.3 spec./min.
same,change in pulse rate and arterial pressure,"[6]; heightened nerve-psychic agitation, in words",eliminates a change in a pulse rate and arterial pressure
same,"Arterial pressure, diastolic",[6]; in vivo,69.3 ± 1.3 mm Hg
same,"Arterial pressure, systolic",[6]; in vivo,110.2 ± 1.7 mm Hg
same,Pulse frequency,[6]; in vivo,76.8 ± 1.4 spec./min.
same,"Arterial pressure, diastolic",[6]; [19],69.2 ± 1.1 mm Hg
same,"Arterial pressure, systolic",[6]; [19],107.7 ± 1.5 mm Hg
same,Pulse frequency,[6]; [19],78.1 ± 1.4 spec./min.
same,"Threshold doses Strychnine 0,01% solution, death of animal",[7]; 2 mg/kg single administration,0.21 ± 0.007 mL
same,"Threshold doses Strychnine 0,01% solution, start of twitch",[7]; 2 mg/kg single administration,0.17 ± 0.008 mL
same,"Threshold doses Strychnine 0,01% solution, death of animal",[7]; 40 mg/kg single administration,0.21 ± 0.005 mL
same,"Threshold doses Strychnine 0,01% solution, start of twitch",[7]; 40 mg/kg single administration,0.18 ± 0.007 mL
same,"Threshold doses Strychnine 0,01% solution, death of animal",[7]; 80 mg/kg single administration,0.18 ± 0.006 mL
same,"Threshold doses Strychnine 0,01% solution, start of twitch",[7]; 80 mg/kg single administration,0.17 ± 0.005 mL
same,"Threshold doses Strychnine 0,01% solution, death of animal",[7]; [20],0.19 ± 0.006 mL
same,"Threshold doses Strychnine 0,01% solution, start of twitch",[7]; [20],0.15 ± 0.008 mL
same,influence on strychnine effects,[7]; in words,does not practically influence said strychnine effects
same,Amplitude of concentration in % to control,"[8]; 1·10^-4 M, 100 µM","65,5%"
same,Amplitude of concentration,[8]; 1·10^-4 M,45.0 ± 0.6 mm
same,Amplitude of concentration in % to control,"[8]; 1·10^-5 M, 10 µM",83%
same,adrenoblocking action,[8]; 1·10^-5 and 1·10^-4 M,weak and mild adrenoblocking action
same,Amplitude of concentration in % to control,"[8]; 1·10^-6 M, 1 µM",94%
same,Amplitude of concentration,[8]; 1·10^-6 M,65.0 ± 1.2 mm
same,contracting responses to adrenaline,[8]; in words,suppresses the contracting responses
same,Amplitude of concentration in % to control,"[9]; 1·10^-4 M, 100 µM",89%
same,Amplitude of concentration,[9]; 1·10^-4 M,97.0 ± 1.5 mm
same,Amplitude of concentration in % to control,"[9]; 1·10^-5 M, 10 µM",99%
same,Amplitude of concentration,[9]; 1·10^-5 M,105.0 ± 1.8 mm
same,Amplitude of concentration in % to control,"[9]; 1·10^-6 M, 1 µM",109%
same,Amplitude of concentration,[9]; 1·10^-6 M,116.0 ± 2.4 mm
same,antagonism with acetylcholine,[9]; in words,without discovering antagonism with said acetylcholine
same,"Amplitude, fast activ.",[10]; 2 mg/kg,325 ± 24
same,"Amplitude, slow activ.",[10]; 2 mg/kg,315 ± 14
same,Maximal effect appearance time from the start of experiment,[10]; 40 mg/kg,70 min
same,Nature of effect,[10]; 40 mg/kg,episodic
same,"Nature of effect, episodes",[10]; 40 mg/kg,1-2 episodes per hr
same,synchronizing effect on encephalogram,[10]; 40 mg/kg intraperitoneally,tends to call for a synchronizing effect on an encephalogram
same,"Amplitude, fast activ.",[10]; 40 mg/kg,243 ± 10
same,"Amplitude, slow activ.",[10]; 40 mg/kg,380 ± 21
same,"Threshold doses Corazol 1% solution, death of animal",[11]; 2 mg/kg single administration,0.119 ± 0.006 mL
same,"Threshold doses Corazol 1% solution, start of twitch",[11]; 2 mg/kg single administration,0.095 ± 0.004 mL
same,"Threshold doses Corazol 1% solution, death of animal",[11]; 2 mg/kg week-long introduction,0.119 ± 0.004 mL
same,"Threshold doses Corazol 1% solution, start of twitch",[11]; 2 mg/kg week-long introduction,0.090 ± 0.007 mL
same,"Threshold doses Corazol 1% solution, death of animal",[11]; 40 mg/kg single administration,0.130 ± 0.006 mL
same,"Threshold doses Corazol 1% solution, start of twitch",[11]; 40 mg/kg single administration,0.091 ± 0.005 mL
same,"Threshold doses Corazol 1% solution, death of animal",[11]; [21],0.163 ± 0.005 mL
same,"Threshold doses Corazol 1% solution, start of twitch",[11]; [21],0.095 ± 0.005 mL
same,"Threshold doses Corazol 1% solution, death of animal",[11]; 80 mg/kg single administration,0.135 ± 0.007 mL
same,"Threshold doses Corazol 1% solution, start of twitch",[11]; 80 mg/kg single administration,0.095 ± 0.004 mL
same,"Threshold doses Corazol 1% solution, death of animal",[11]; [20],0.130 ± 0.08 mL
same,"Threshold doses Corazol 1% solution, start of twitch",[11]; [20],0.096 ± 0.007 mL
same,Corazol threshold dosage,[11]; in words,somewhat increasing a Corazol threshold dosage
same,alcohol motivation,[12],considerably reduces it
same,15% ethanol daily consumed,[12]; 1 week,3.6 ± 0.3 mL
same,15% ethanol daily consumed,[12]; 2 week,4.0 ± 0.3 mL
same,15% ethanol daily consumed,[12]; 3 week,2.3 ± 0.3 mL
same,15% ethanol daily consumed,[12]; 4 week,2.7 ± 0.2 mL
